From patent publication US6214882A, “Benzenesulphonamide derivatives, preparation thereof and therapeutical uses thereof” (Synthelabo, priority 1995, dated 2001) come the findings set out here.

In one test the test system is arterial smooth muscles. Description: in vitro contraction of rabbit mesenteric artery rings. Format: cell-based. The conditions noted are these: Oryctolagus cuniculus, read-out: arterial pD2 (converted). Here is the method: (§1) The in vitro activity of the compounds of the invention was studied on urethral and arterial smooth muscles.
(§2) These experiments were carried out on female New Zealand rabbits weighing from 3 to 3.5 kg. The animals were killed by vertebral dislocation, and rings of tissue were then removed from mesenteric arteries and from the urethra. These rings of tissue were immersed in a modified Krebs solution and oxygenated with a mixture of 95% O2 and 5% CO2. Each sample of tissue was subjected to a tension of 1 g, phenylephrine was then introduced at cumulative doses and the dose/response curve was established. After rinsing of the samples, the test compound was introduced at cumulative doses and the dose/response curve was established. The α1 -adrenergic effect of each compound is evaluated by calculating the pD2 (negative logarithm of the concentration of antagonist in the presence of which the effect of a dose of the agonist is divided by 2), as well as by the maximum effect representing the percentage of the maximum contraction obtained with phenylephrine (% Emax)

For a further test, the system named is urethral smooth muscles. The experiment in a line: in vitro contraction of rabbit urethra rings. The class given is cell-based. As to conditions: Oryctolagus cuniculus, read-out: urethral pD2 (converted). Here is the method: as §1, §2

For the compound `CNC[C@H](O)c1cccc(O)c1` [phenylephrine], the EC50 with arterial smooth muscles and with urethral smooth muscles was 3.16 to 6.31 µM each time.
